From patent US4748122A, “2,5-diketo-D-gluconic acid reductase” (Shionogi & Co., Ltd., priority 1983, dated 1988)

Experiments:
25DKG-Rase [1] = molecular target: T1, 25DKG-Rase (Corynebacterium sp., UniProt P15339); experiment: Spectrophotometric enzymatic activity (decrease in absorption at 340 nm), purified enzyme solution of Example 1; assay type: biochemical, Corynebacterium sp. No. 20A-77 mutant (FERM-BP 108); settings: for reductive activity (in words) / Activity of the purified enzyme solution (1 ml): NADPH, 0.1M TB pH 7, 30° C.; for Enzymatic activity: per 1 ml purified enzyme solution
T1 construct: The enzyme is an intracellular enzyme extracted from the cells of the 2KLG producing strain; made in house; host or cells: natural producer Corynebacterium sp; No. 20A-77 mutant FERM-BP 108, enzyme purified from sonicated cells; not recombinant
T1 sequence (P15339 2-277 limits assumed): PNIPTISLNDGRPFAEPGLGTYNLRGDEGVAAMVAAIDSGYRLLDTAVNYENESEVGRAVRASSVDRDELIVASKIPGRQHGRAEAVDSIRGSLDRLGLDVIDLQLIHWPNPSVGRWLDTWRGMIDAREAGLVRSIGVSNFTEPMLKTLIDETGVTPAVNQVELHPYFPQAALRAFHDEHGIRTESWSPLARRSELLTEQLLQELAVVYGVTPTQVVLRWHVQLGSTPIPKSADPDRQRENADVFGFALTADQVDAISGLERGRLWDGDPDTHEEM

[2] = test system: 25DKG-Rase derived from Strain K-106; experiment: Substrate specificity by product formation, enzyme from K-106; assay type: biochemical, Corynebacterium sp. No. K-106 (ATCC 31,088)
Protocol: (§1) The purified enzyme solution (10 μl) obtained above (3) was mixed with 25 μmoles of a substrate (Ca-25DKG or 5KF) and 3.0 ml of 0.01M TB (pH 7) containing 15 μmoles of NADPH and the mixture was allowed to react at 30° C. for 60 minutes. After the reaction, the reaction mixture was analyzed by paper chromatography (developing solvent; phenol:formic acid:water=75:4:25, chromogenic agent; AHF solution, prepared by dissolving 0.93 g of anilin and 1.66 g of phthalic acid in 100 ml of water-saturated n-butanol and heating at 105° C. for 2 minutes) and by gas chromatography (column; SE-52, carrier gas: Helium, sample; trimethylsilylated derivative). […] In Table 1, the results of quantitative determination of the products by gas chromatography are shown.
(§2) The measurements of the physico-chemical properties were conducted in a manner as described in Example 1-(4) (5).

[3] = test system: 25DKG-Rase derived from Strain T-13; experiment: Substrate specificity by product formation, enzyme from T-13; assay type: biochemical, Corynebacterium sp. No. T-13 (ATCC 31,089)
Protocol: as §1, §2

25DKG-Rase [4] = molecular target: T2, 25DKG-Rase (Corynebacterium sp. SHS752001, UniProt P15339); experiment: Action, substrate specificity and Km of the purified 25DKG-Rase (general description); assay type: biochemical, genus Corynebacterium; settings: for specificities for substrates (reducing action): in the presence of NADPH
Source text: As shown, NADPH is used as a hydrogen donor in the above reaction. Reduced nicotinamide adenine dinucleotide (NADH) may also be used as the hydrogen donor in the above reaction but the reaction velocity in that case is lowered to one two hundred and fiftieth (1/250) or less of that in the reaction where NADPH is used.
The enzymatic activity is spectrophotometrically measured on the basis of the decrease in absorption at 340 nm which corresponds to the oxidation of NADPH as the result of the enzyme reaction at 30° C. in 0.1M Tris buffer (pH 7) containing 0.1 mM NADPH and 3.3 mM Ca-25DKG. One unit of the enzymatic activity is defined as that oxidizes 1 μmole of NADPH for one minute.

25DKG-Rase [5] = molecular target: T2, 25DKG-Rase; experiment: as above; assay type: biochemical, genus Corynebacterium; settings: in the presence of NADP or NAD
25DKG-Rase [6] = molecular target: T1, 25DKG-Rase; assay type: biochemical, Corynebacterium sp. No. 20A-77 mutant (FERM-BP 108); settings: 60 minutes; for product formed (paper and gas chromatography): NADPH, 0.01M TB pH 7, 30° C.
[7] = test system: 25DKG-Rase derived from Strain K-106; experiment: Enzymatic activity of 25DKG-Rase obtained from K-106 (Example 2); assay type: biochemical, Corynebacterium sp. No. K-106 (ATCC 31,088)
Protocol: (§3) Two point nine (2.9) ml of 0.1M TB (pH 7) containing 0.3 μmoles of NADPH was placed in a quartz cubette having 1 cm optical length difference and added 1-5 μl of the enzyme solution obtained above (3) thereto. Then, to the mixture, each 0.1 ml of the various substrate solutions (0.1M) were added while being kept at 30° C. Reactivities of the enzyme on the respective substrates were determined, by means of successive measurement of the decrease in absorption at 340 nm, on the basis of the decrease for 1 minute.
as §2
(§4) Enzymatic activities of 25DKG-Rases obtained from K-106 and T-13 were measured at varying pH from 4 to 9 (substrate: Ca-25DKG, reaction temperature: 30° C.).
(§5) The enzymatic activities of 25DKG-Rases obtained from K-106 and T-13 were measured at varying temperature (pH 7.0, substrate: Ca-25DKG).

[8] = test system: 25DKG-Rase derived from Strain T-13; experiment: Enzymatic activity of 25DKG-Rase obtained from T-13 (Example 2); assay type: biochemical, Corynebacterium sp. No. T-13 (ATCC 31,089)
Protocol: as §3, §2, §4, §5

25DKG-Rase [9] = molecular target: T2, 25DKG-Rase; experiment: Inhibition, activation and stabilization of the enzyme; assay type: biochemical, genus Corynebacterium; settings: for activation of the enzyme: addition of Mg++ or Mn++; for stabilization of the enzyme: glycerol of a high concentration (30-50%) or sucrose (1M)
Source text: It is stabilized by glycerol of a high concentration (30-50%) or sucrose (1M).

T2 sequence (P15339 whole entry): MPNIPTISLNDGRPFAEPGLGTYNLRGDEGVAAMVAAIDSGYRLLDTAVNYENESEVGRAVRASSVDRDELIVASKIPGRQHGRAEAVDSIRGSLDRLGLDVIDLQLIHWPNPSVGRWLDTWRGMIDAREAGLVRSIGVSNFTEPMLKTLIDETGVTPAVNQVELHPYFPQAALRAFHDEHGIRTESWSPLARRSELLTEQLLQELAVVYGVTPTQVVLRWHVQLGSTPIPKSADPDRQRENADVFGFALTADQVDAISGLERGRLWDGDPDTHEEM

O=C(O)C(=O)[C@@H](O)[C@H](O)[C@H](O)CO [2-keto-D-gluconic acid]
reductive activity (in words) (25DKG-Rase [1]): does not show any reductive activity | product formed (substrate specificity) [2]: None was produced | product formed (substrate specificity) [3]: None was produced | specificities for substrates (reducing action) (25DKG-Rase [4]): does not show any reducing action

O=C(O)C(=O)[C@@H](O)[C@H](O)[C@@H](O)CO [2KLG, 2-keto-L-gulonic acid]
reductive activity (in words) (25DKG-Rase [1]): does not show any reductive activity | product formed (substrate specificity) [2]: None was produced | product formed (substrate specificity) [3]: None was produced | specificities for substrates (reducing action) (25DKG-Rase [4]): does not show any reducing action | production of 25DKG or 5KF from 2KLG or L-sorbose (reverse reaction) (25DKG-Rase [5]): No or not substantial production

O=C(CO)[C@@H](O)[C@H](O)[C@@H](O)C(=O)O [5-keto-D-gluconic acid]
reductive activity (in words) (25DKG-Rase [1]): does not show any reductive activity | product formed (substrate specificity) [2]: None was produced | product formed (substrate specificity) [3]: None was produced | specificities for substrates (reducing action) (25DKG-Rase [4]): does not reduce

O=C(CO)[C@@H](O)[C@H](O)C(=O)CO [5KF, 5-keto-D-fructose]
Activity of the purified enzyme solution (1 ml) (25DKG-Rase [1]): 94 units | reductive activity (in words) (25DKG-Rase [1]): shows a high activity | Enzymatic activity (25DKG-Rase [1]; pH 4.0, 3,3-dimethylglutaric acid buffer): 2 unit/ml | Enzymatic activity (25DKG-Rase [1]; pH 5.0, 3,3-dimethylglutaric acid buffer): 33 unit/ml | Enzymatic activity (25DKG-Rase [1]; pH 6.0, Good (PIPES) buffer): 96 unit/ml | Enzymatic activity (25DKG-Rase [1]; pH 6.5, Good (PIPES) buffer): 95 unit/ml | Enzymatic activity (25DKG-Rase [1]; pH 7.0, Good (PIPES) buffer): 92 unit/ml | Enzymatic activity (25DKG-Rase [1]; pH 7.0, Tris buffer): 93 unit/ml | Enzymatic activity (25DKG-Rase [1]; pH 7.5, Tris buffer): 68 unit/ml | Enzymatic activity (25DKG-Rase [1]; pH 8.0, Tris buffer): 48 unit/ml | Enzymatic activity (25DKG-Rase [1]; pH 8.5, Tris buffer): 27 unit/ml | Enzymatic activity (25DKG-Rase [1]; pH 9.0, Tris buffer): 13 unit/ml | Concentration of the product (25DKG-Rase [6]; 10 μl enzyme solution, 25 μmoles substrate, 15 μmoles NADPH, 30° C., gas chromatography): 795 µg/mL | product formed (paper and gas chromatography) (25DKG-Rase [6]): only L-sorbose is produced | Enzymatic activity per protein ([7]; enzyme from Strain K-106, NADPH): 152 units/mg protein | Enzymatic activity ([7]; enzyme from Strain K-106, purified enzyme solution, NADPH): 38.3 units/ml | Enzymatic activity per protein ([8]; enzyme from Strain T-13, NADPH): 229 units/mg protein | Enzymatic activity ([8]; enzyme from Strain T-13, purified enzyme solution, NADPH): 39 units/ml | product formed (substrate specificity) [2]: only L-sorbose | product formed (substrate specificity) [3]: only L-sorbose | specificities for substrates (reducing action) (25DKG-Rase [4]): shows specificities

O=C(O)C(=O)[C@@H](O)[C@H](O)C(=O)CO [25DKG, 2,5-diketo-D-gluconic acid]
reductive activity (in words) (25DKG-Rase [1]): shows a high activity | product formed (paper and gas chromatography) (25DKG-Rase [6]): only 2KLG is produced | Km ([7]; purified enzyme solution of K-106): 1700 ± 1000 µM | Km ([8]; purified enzyme solution of T-13): 2600 ± 1000 µM | 25DKG of the substrate reduced to 2KLG (25DKG-Rase [4]; 30° C. for 60-120 minutes): ≥ 90% | specificities for substrates (reducing action) (25DKG-Rase [4]): shows specificities

O=C(O)C(=O)[C@@H](O)[C@H](O)[C@H](O)CO [Ca-2-keto-D-gluconate]
Activity of the purified enzyme solution (1 ml) (25DKG-Rase [1]): 0 units

O=C(CO)[C@@H](O)[C@H](O)[C@H](O)CO [D-fructose]
Activity of the purified enzyme solution (1 ml) (25DKG-Rase [1]): 0 units | reductive activity (in words) (25DKG-Rase [1]): does not show any reductive activity | product formed (substrate specificity) [2]: None was produced | product formed (substrate specificity) [3]: None was produced | specificities for substrates (reducing action) (25DKG-Rase [4]): does not show any reducing action

O=C(CO)[C@@H](O)[C@H](O)[C@@H](O)C(=O)O [K-5-keto-gluconate]
Activity of the purified enzyme solution (1 ml) (25DKG-Rase [1]): 0 units

O=C(CO)[C@@H](O)[C@H](O)[C@@H](O)CO [L-sorbose]
Activity of the purified enzyme solution (1 ml) (25DKG-Rase [1]): 0 units | reductive activity (in words) (25DKG-Rase [1]): does not show any reductive activity | product formed (substrate specificity) [2]: None was produced | product formed (substrate specificity) [3]: None was produced | specificities for substrates (reducing action) (25DKG-Rase [4]): does not show any reducing action | production of 25DKG or 5KF from 2KLG or L-sorbose (reverse reaction) (25DKG-Rase [5]): No or not substantial production

[Mg+2] [Mg^++]
activation of the enzyme (25DKG-Rase [9]): No remarkable increase in activation

[Mn+2] [Mn^++]
activation of the enzyme (25DKG-Rase [9]): No remarkable increase in activation

NC(=O)C1=CN([C@@H]2O[C@H](COP(=O)(O)OP(=O)(O)OC[C@H]3O[C@@H](n4cnc5c(N)ncnc54)[C@H](O)[C@@H]3O)[C@@H](O)[C@H]2O)C=CC1 [NADH, Reduced nicotinamide adenine dinucleotide]
reaction velocity with NADH as hydrogen donor relative to NADPH (25DKG-Rase [4]; NADH in place of NADPH): 1/250

O=C(O)C(=O)[C@@H](O)[C@H](O)[C@@H](O)CO [Na-2KLG]
Activity of the purified enzyme solution (1 ml) (25DKG-Rase [1]): 0 units

O=CC(O)CO (stereo not shown) [glyceroaldehyde]
inhibition of the enzyme (25DKG-Rase [9]): scarcely inhibited

OCC(O)CO [glycerol]
stabilization of the enzyme (25DKG-Rase [9]): stabilized

O=C(O)C(=O)O [oxalate]
inhibition of the enzyme (25DKG-Rase [9]): inhibited

OC[C@H]1O[C@@](CO)(O[C@H]2O[C@H](CO)[C@@H](O)[C@H](O)[C@H]2O)[C@@H](O)[C@@H]1O [sucrose]
stabilization of the enzyme (25DKG-Rase [9]): stabilized
